According to a melting point compilation (Tetko et al.; mined from patent text by program, amines drawn as free bases though some values may be those of a salt):

| Structure (SMILES) | melting point |
| --- | --- |
| COc1ccc(F)cc1C(C)(C)CC(C)(O)Cc1cc2ccccc2[nH]1 (centres undefined) | 118 to 120 °C |
| Cc1nnsc1C(=O)Nc1ccc(-n2nc(-c3cccnc3)cc2C#N)cc1 | 215 to 218 °C |
| CN(C(=O)OCc1ccccc1)[C@H]1CNc2ccccc2C1 | 80 °C |
| CN(C)c1nc2cc(NC(=O)c3c(C(=O)N4CC(F)C4)cnn3C)ccn2n1 | 243 to 244 °C |
| CCCOc1nc(N)nc2c1ncn2C1C=CC(CO)C1 (centres undefined) | 97 to 99 °C |
| Cc1nnc2ncc(-c3ccccc3Cl)nn12 | 172 to 175 °C |
| COc1cc(COC(=O)CCc2nc(-c3ccc(Cl)cc3)co2)cc(OC)c1OC | 86 to 87 °C |
| CCCc1c(/C=C/c2ccc(C)cc2)nc2ccc(C(=O)O)cn2c1=O | 274 to 275 °C |
| O=Cc1c2ccc(F)cc2c(C=O)c2ccc(F)cc12 | 240 to 242 °C |
| C=CC(=O)OC1CC(C)(C)N(OC2CCCCC2)C(C)(C)C1 | 49 to 52 °C |
| COC(=O)c1ccc(NC(=O)c2c(-c3ccccc3)c(-c3ccc(F)cc3)n(CC[C@@H]3C[C@H](CC(=O)OC(C)(C)C)OC(C)(C)O3)c2C(C)C)cc1 | 159 to 160 °C |
| COCC1CN(c2ccc(C3CCC(OC(=O)c4ccccc4)CC3)cc2)C(=O)O1 (racemic) | 104 to 105 °C |
| O=C1N(Cc2ccc(C(F)(F)F)o2)c2ccccc2C1(O)c1nc2c(cc1O)OCO2 (centres undefined) | > 250 °C |
| Cc1c(Cc2ccc(C(=O)O)s2)n(S(=O)(=O)c2cccc(C(C)(C)C)c2)c2ccc(C(F)(F)F)cc12 | 171 °C |
| Cc1cc2ncnn2nc1OCCCC(C)(C)CCS(N)(=O)=O | 154 to 155 °C |
| Fc1ccc(-c2[nH]c(C3CCCNC3)nc2-c2ccncc2)cc1 (centres undefined) | 252 to 254 °C |
| COC(=O)c1cc(C(=O)NCCCO)c2cc(Cc3ccc(F)cc3)cnc2c1O | 167 to 168 °C |
| Oc1c(C(Nc2ccc(Cl)cn2)c2ccccn2)ccc2cccnc12 (centres undefined) | 160 to 162 °C |
| COC(=O)c1ccc(COc2c(C)c(C)c3c(c2C)C(c2ccc(C(C)C)cc2)C(C)(C)O3)cc1 (centres undefined) | 108 to 110 °C |
| CC(=O)n1nc(C)c(Oc2cc(Cl)cc(Cl)c2)c1C | < 60 °C |
| CNC(=O)Nc1cc2c(s1)CCCC2NC(=O)NC (centres undefined) | 233 to 234 °C |
| Cc1nn(C)c(N)c1C#N | 193 to 195 °C |
| O=C(Nc1cc(C(F)(F)F)nc(C(F)(F)F)c1)C(=O)Nc1cc(C(F)(F)F)nc(C(F)(F)F)c1 | 271 to 272 °C |
| NC(=O)Cc1nc2ccnc(-c3cccc(C(F)(F)F)c3)n2n1 | 218 to 220 °C |
| CNC(=O)Cn1nc(-c2ccc(OC)cc2)cc(C(=O)NC)c1=O | 250 to 251 °C |

| Structure (SMILES) | melting point |
| --- | --- |
| O=C(CCC(=O)c1ccccc1)NCc1ccccc1 | 110 to 112 °C |
| COc1ccc(Cn2ncc3c4c(cnc32)CN(C(=O)Nc2ccccc2)CC4)cc1 | > 65 °C |
| NC(=O)C(c1ccc(Cl)cc1)c1ncc(C(F)(F)F)cc1Cl (centres undefined) | 135 to 136 °C |
| COCC(=S)Nc1c(Cl)c(C)cc2nc(OC)c(OC)nc12 | 174 to 176 °C |
| CCC(C)n1ncn(-c2ccc(N3CCN(c4ccc(OC)cc4)CC3)c(Br)c2)c1=O (centres undefined) | 145 °C |
| CN(C(=O)c1ccc(C(C)(C)C)cc1)C1N(C)C(c2ccc(F)cc2)=NC1(C(F)(F)F)C(F)(F)F (centres undefined) | 129 to 130 °C |
| CC(C)C(C)C=CC(C)C1CCC2C3CC(=O)C4CC=CCC4(C)C3CCC12C (centres undefined) | 118 to 120 °C |
| O=C(Cc1cc(F)ccc1F)N1CCNc2ncc(I)cc21 | 152 to 153 °C |
| CCOC(=O)c1cn(C2CC2)c2nc(Cl)c(F)cc2c1=O | 176 to 178 °C |
| CC12C=CC(=O)C=C1CCC1C3=CC(O)C(O)(C(=O)CO)C3(C)CC(O)C12 (centres undefined) | 240 to 242 °C |
| CCCCOc1cc(C(=O)O)cc(N)c1C(=O)c1ccc(Cl)cc1 | 286 to 288 °C |
| Cc1csc2ncc(CO)n12 | 161 to 162 °C |
| CCc1nc(-c2cnccn2)no1 | 52 to 57 °C |
| C#CC1(O)CCC2C3CCC4CC=CCC4C3CCC21C (centres undefined) | 108 to 109 °C |
| O=C(c1ccc(Cl)cc1)N1CC2CC2(c2ccc(Cl)cc2)C1 (centres undefined) | 88 to 92 °C |
| COc1ccc(C2CN(O)C3(c4ccccc4)CCCCC23)cc1OC (centres undefined) | 166 to 168 °C |
| CC(=O)OCC1OC(n2nnnc2Cl)C(OC(C)=O)C(OC(C)=O)C1OC(C)=O (centres undefined) | 172 °C |
| NC(=O)c1ncn2c1[C@@H]1CCN1C(=O)c1cc(F)ccc1-2 | 223 to 224 °C |
| O=C(O)c1cc(Br)cc2c1NCCC2C(=O)O (centres undefined) | 238 to 239 °C |
| CCCS(=O)(=O)c1c(C)nn(-c2c(Cl)cc(C(F)(F)F)cc2Cl)c1N | 146 to 147 °C |
| Cc1c2c3c(ccc2nn1C)CCC3=CC#N | 200 to 203 °C |
| O=[N+]([O-])c1cccc(-c2cc(Cc3ccc(F)cc3)cc(/C=N/O)c2O)c1 | 157 to 159 °C |
| O=[N+]([O-])c1ccc(-c2c(Cl)ncnc2NS(=O)(=O)c2ccc(Cl)cc2)cc1 | 282 to 285 °C |
| CC(C(=O)O)c1ccc2c(Br)c(OCc3ccc4ccccc4n3)ccc2c1 (centres undefined) | 210 to 212 °C |
| CCOC(=O)c1cccc2c1CCCC2C(N)=O (centres undefined) | 160 to 162 °C |

| Structure (SMILES) | melting point |
| --- | --- |
| CON=CC1=CCCN(C(=O)Oc2ccc(C(C)(C)CC(C)(C)C)cc2)C1 | 91 to 93 °C |
| CC(C)(C)OC(=O)NCc1cccc(C=CC(=O)O)c1 | 121 to 123 °C |
| CC(C)(C)c1cc(CCC(=O)NCCNCCNCCNC(=O)CCc2cc(C(C)(C)C)c(O)c(C(C)(C)C)c2)cc(C(C)(C)C)c1O | 80 to 110 °C |
| C[C@H]1[C@H](N(C)C)CN1c1cc2c(cc1F)c(=O)c(C(=O)O)cn2C1CC1 (relative stereo) | 181 to 185 °C |
| N#CCCn1nc(-c2ccc(OCc3ccccc3)cc2)oc1=O | 136 °C |
| CC(=O)c1ccc(C(=O)N2Cc3cccn3Cc3ccccc32)c(Cl)c1 | 98 to 100 °C |
| NC(=O)[C@@H]1[C@H](Nc2c(Br)cnc3[nH]c(-c4cccnc4N4CCOCC4)nc23)[C@H]2C=C[C@@H]1C2 | 150 °C |
| COC(=O)c1cc(-n2cnn(Cc3ccc(F)cc3)c2=O)nn1Cc1ccc(OC)cc1 | 139 to 140 °C |
| CCCC1=C(C(=O)OCC)C(c2ccnc3ccccc23)c2c[nH]nc2N1 (centres undefined) | 198 °C |
| Cc1cc(CO)c2c(N)c(C(N)=O)sc2n1 | > 210 °C |
| CCCC12CCC3=C(CCc4cc(OC)ccc43)C1CCC2=O (centres undefined) | 111 to 113 °C |
| CCn1c(N)nc(N2CCc3ccccc3CC2)c(C#N)c1=O | 195 to 203 °C |
| CCCCn1c(=O)c(C(=O)OCC)c(N)c2cnc(C)nc21 | 214 to 216 °C |
| N#CC(C#N)=C1C=C(C=Cc2ccc(N)cc2)OC(C=Cc2ccc(N)cc2)=C1 | 249 °C |
| CCCC(=O)c1cnc2c(COC(=O)c3ccc(OC)cc3)cccc2c1Nc1ccc(O)cc1C | 171 to 175 °C |
| O=C(c1ccc(-c2ccc(C(CC3CCOCC3)c3ccc(S(=O)(=O)C4CC4)cc3)[nH]2)nc1)N1CCOCC1 (centres undefined) | 114 to 116 °C |
| CCOC(CN1C(=O)C2=C(c3ccsc3)N(CC(OCC)OCC)C(=O)C2=C1c1ccsc1)OCC | 166 to 167 °C |
| O=C(c1ccc(I)cc1)N1CCOCC1 | 116 to 117 °C |
| COC(=O)N1C2C3C=CC(C3OC(C)(C)C)C2N1C(=O)OC (centres undefined) | 86 °C |
| Cc1c(Cl)cc(C(=O)CC(Cl)C(=O)O)cc1Cl (centres undefined) | 129 to 132 °C |
| COc1cc(Br)c(Nc2nc(C)nc(-c3ccccc3C(F)(F)F)c2[N+](=O)[O-])c(OC)c1 | 147 to 148 °C |
| COC(=O)c1ccc(Cl)c(N)c1Cl | 50 to 52 °C |
| OCc1ccn(-c2ccc(OC(F)(F)F)cc2)n1 | 53 to 54 °C |
| Cc1cc(F)ccc1NC(=O)c1cccc(S(=O)(=O)N(C)c2ccc(Br)cc2)c1 | 163 to 165 °C |
| CC(=O)SC(CC(=O)c1ccc(Oc2ccc(Br)cc2)cc1)C(=O)O (centres undefined) | 117 to 118 °C |

| Structure (SMILES) | melting point |
| --- | --- |
| CC(C)(C)n1nc(Cc2ccncc2)c(C(N)=O)c1N | 125 to 127 °C |
| NC(=S)c1ncn(C2OC(COS(N)(=O)=O)C(O)C2O)n1 (centres undefined) | 173 to 175 °C |
| CC(SC1COC(c2ccc(C(=O)Nc3ccc(CC#N)cc3)cc2)OC1)C(O)(Cn1cncn1)c1ccc(F)cc1F (centres undefined) | 188 °C |
| Cn1nnnc1-c1ccc(CCl)cc1 | 90 to 92 °C |
| CC(C)c1cc(Oc2ccc(Cl)cc2C(=O)O)cc(C(C)C)c1 | 129 to 130 °C |
| CCCCC(Cc1ccc(OCCN(CC)CC)cc1)(C(=O)NO)S(=O)(=O)c1ccc(OC)cc1 (centres undefined) | 67 °C |
| Cc1cc(C)c(C(=O)P(=O)(C(=O)c2c(C)cc(C)cc2C)c2ccccc2)c(C)c1 | 130 to 131 °C |
| CNCc1ccc(-c2cc3ncnc(Nc4ccc5[nH]ccc5c4)c3s2)cc1 | 140 to 147 °C |
| NCc1nc(-c2ncn3c2[C@@H]2CCN2C(=O)c2c(Cl)cccc2-3)no1 | 212 to 214 °C |
| O=C(Nc1cccc(Cl)c1)O[C@H]1COC(c2ccccc2)=N[C@@H]1c1ccccc1 (racemic) | 160 °C |
| CC(C)OC(=O)c1cc(-n2c(Cl)nc(C(F)(F)F)cc2=O)c(F)cc1Cl | 72 to 75 °C |
| Nc1nc(N)c(Br)c(OCCOCP(=O)(O)O)n1 | 218 °C |
| CC1=NN(C)c2nc(C)c(CCO)c(=O)n2C1 | 140 °C |
| NC(=O)CNC(=O)c1cccc(-c2ccc(Cl)c3cc(Cc4cc(F)cc(Cl)c4)sc23)c1 | 204 to 205 °C |
| COc1cc2cc(C(=O)OCc3ccccc3)n(CC(=O)OC(C)(C)C)c2cn1 | 110 °C |
| CCCCCCCCCCCCCCc1ccc(OCC2COC(C)(C)O2)c(CC)c1 (centres undefined) | 34 to 38 °C |
| CS(=O)(=O)c1ccc(-c2nn3c4c(oc3c2-c2ccc(F)cc2)CSCC4)cc1 | 178 to 180 °C |
| Cc1cccc(NC(=O)NCC(=O)N(CC(=O)OC2CCCCC2)c2ccccc2)c1 | 176 °C |
| O=C1NC(=O)C(Nc2ccc(Br)c3ccccc23)S1 (centres undefined) | 199 to 200 °C |
| O=C1Cc2ccccc2-c2cc(-c3ccccc3)nn21 | 181 to 183 °C |
| N#Cc1ccc(C(=O)N=C=S)cc1 | 87.5 to 88.5 °C |
| CCN1C(=O)C(C(=O)c2ccco2)c2cc(Cl)cnc21 (centres undefined) | 162 to 163 °C |
| C/C=C/C(=O)NCCc1ccc(F)cc1 | 121 to 123 °C |
| COc1ccc(C(=O)C=Cc2ccccc2[N+](=O)[O-])c(OC)c1OC | 107 to 108 °C |
